Measurements: patent publication US9200046B2, “Reporter system for high throughput screening of compounds and uses thereof” (priority 2011, dated 2015)
Structures can show the parent of a compound that is named as a salt. Where two headings read alike, the source gives them in different places.

Molecular target: Nrf2-Keap1 complex (Homo sapiens, UniProt Q14145)
Test: cell-based
Assay type: cell-based
Settings: for activation at 16 µM / activation at 32 µM: 3 h; for activation at 16 µM: read-out: Activation 100 nL; for activation at 32 µM: read-out: Activation 200 nL
[1] = Table 2, 100 nL compound, screen run at 16 and 32 μM, 3 hr
[2] = Table 2, 200 nL compound, screen run at 16 and 32 μM, 3 hr

Chain of Nrf2-Keap1 complex (Q14145 whole entry, one chain of several): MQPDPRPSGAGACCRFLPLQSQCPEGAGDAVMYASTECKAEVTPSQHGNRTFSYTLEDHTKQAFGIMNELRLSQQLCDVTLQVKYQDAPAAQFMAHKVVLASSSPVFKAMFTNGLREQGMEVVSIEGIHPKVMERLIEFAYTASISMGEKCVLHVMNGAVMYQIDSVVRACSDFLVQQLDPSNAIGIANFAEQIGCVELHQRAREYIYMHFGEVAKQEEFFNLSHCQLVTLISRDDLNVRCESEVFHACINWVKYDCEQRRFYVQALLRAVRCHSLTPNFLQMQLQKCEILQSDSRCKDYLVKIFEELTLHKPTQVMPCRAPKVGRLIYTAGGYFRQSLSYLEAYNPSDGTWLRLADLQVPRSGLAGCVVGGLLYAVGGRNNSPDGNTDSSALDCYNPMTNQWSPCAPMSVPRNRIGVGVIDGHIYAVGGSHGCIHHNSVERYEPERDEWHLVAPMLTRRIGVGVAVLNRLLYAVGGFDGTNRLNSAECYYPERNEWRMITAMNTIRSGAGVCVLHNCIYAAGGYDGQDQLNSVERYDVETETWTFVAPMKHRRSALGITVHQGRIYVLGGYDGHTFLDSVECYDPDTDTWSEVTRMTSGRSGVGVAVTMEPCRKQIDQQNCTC

O=S(=O)(O)CCS [MESNA, reference compound]
100 nL (luminescence): 952 | 200 nL (luminescence): 612 | activation at 16 µM: 28% | activation at 32 µM: 18%

COc1cc(O)c(C(=O)/C=C/c2ccc(O)c(OC)c2)c(OC)c1 [2′,4-DIHYDROXY-3,4′,6′-TRIMETHOXYCHALCONE]
activation at 16 µM: 655% | activation at 32 µM: 305% | 100 nL (luminescence) [1]: 6104 | 200 nL (luminescence) [2]: 7512

C=C(C)[C@@H]1CC[C@]2(C(=O)O)CC[C@]3(C)[C@H](CC[C@@H]4[C@@]5(C)CC[C@H](O)C(C)(C)[C@@H]5CC[C@]43C)[C@@H]12 [BETULINICACID]
activation at 16 µM: 54% | activation at 32 µM: 85%

CN(C)c1ccc(O)c2c1C[C@H]1C[C@H]3[C@H](N(C)C)C(O)=C(C(N)=O)C(=O)[C@@]3(O)C(O)=C1C2=O [MINOCYCLINEHYDROCHLORIDE, reference compound]
Neh2-luc reporter activation: 200% | activation at 16 µM: 326% | activation at 32 µM: 169%

COc1cc(O)c2c(=O)cc(C)oc2c1CC=C(C)C [HETEROPEUCENIN, METHYLETHER]
Activation 100 nL: 27% | Activation 200 nL: 45% | 100 nL (luminescence) [1]: 772 | 200 nL (luminescence) [2]: 1020

CC(=O)Nc1ccc(O)cc1 [ACETAMINOPHEN, reference compound]
100 nL (luminescence): 996 | 200 nL (luminescence): 1012 | Neh2-luc reporter activation: more than 50% | activation at 16 µM: 53% | activation at 32 µM: 32%

CC1(C)C(=O)C=C[C@]2(C)[C@H]3CC[C@@]4(C)[C@H](c5ccoc5)OC(=O)[C@H]5O[C@]54[C@]3(C)[C@H](O)C[C@@H]12 [DEACETYLGEDUNIN]
activation at 16 µM: 69% | activation at 32 µM: -7% | 100 nL (luminescence) [1]: 1412 | 200 nL (luminescence) [2]: 220

O=c1c(-c2ccc(O)cc2)coc2cc(O)cc(O)c12 [GENISTEIN]
activation at 16 µM: 106% | activation at 32 µM: 93% | 100 nL (luminescence) [1]: 1980 | 200 nL (luminescence) [2]: 1748

C[C@]12C=CC(=O)C=C1CC[C@@H]1[C@@H]2[C@@H](O)C[C@@]2(C)[C@H]1CC[C@]2(O)C(=O)CO [PREDNISOLONE, reference compound]
100 nL (luminescence): 864 | 200 nL (luminescence): 1452 | activation at 16 µM: 42% | activation at 32 µM: 53%

[H]/N=C(\N/C(=N/[H])NCCCCCCNC(=N)NC(=N)Nc1ccc(Cl)cc1)Nc1ccc(Cl)cc1 [CHLORHEXIDINE, reference compound]
Activation 100 nL: 147% | Activation 200 nL: 67% | 100 nL (luminescence) [1]: 2188 | 200 nL (luminescence) [2]: 1750

CC(=O)OC[C@@]1(O)C[C@@]23CC[C@@H]4c5ccoc5CC[C@@]4(C)[C@@H]2CC[C@@H]1C3 [CAFESTOLACETATE]
activation at 16 µM: 81% | activation at 32 µM: 67% | 100 nL (luminescence) [1]: 1452 | 200 nL (luminescence) [2]: 1976

C[C@]12CCC(=O)C=C1CCc1ccc(O)cc12 [12-HYDROXY-4,4-BISNOR-4,8,11,13-PODOCARPATETRAEN-3-ONE]
Activation 100 nL: 26% | Activation 200 nL: 18% | 100 nL (luminescence) [1]: 592 | 200 nL (luminescence) [2]: 768

COC(=O)c1c(C)cc(O)cc1O [METHYLORSELLINATE]
activation at 16 µM: 31% | activation at 32 µM: 1% | 100 nL (luminescence) [1]: 640 | 200 nL (luminescence) [2]: 368

Oc1nc2cc(Cl)c(Cl)cc2nc1O [2,3-DIHYDROXY-6,7-DICHLOROQUINOXALINE]
activation at 16 µM: 46% | activation at 32 µM: 109% | 100 nL (luminescence) [1]: 1056 | 200 nL (luminescence) [2]: 1992

CC(C)C1=CC2=CC[C@@H]3[C@](C)(CCC[C@@]3(C)C(=O)O)[C@H]2CC1 [ABIETICACID]
100 nL (luminescence): 1256 | 200 nL (luminescence): 1748 | activation at 16 µM: 67% | activation at 32 µM: 57%

COc1ccc2c(c1)OCC(=Cc1ccc(O)c(O)c1)C2=O
Activation 100 nL: 292% | Activation 200 nL: 169% | 100 nL (luminescence) [1]: 4822 | 200 nL (luminescence) [2]: 2904

OC[C@H]1O[C@H]([S-])[C@H](O)[C@@H](O)[C@@H]1O.[Au+] [AUROTHIOGLUCOSE, reference compound]
Activation 100 nL: 27% | Activation 200 nL: 1% | 100 nL (luminescence) [1]: 604 | 200 nL (luminescence) [2]: 360

CC(=O)OC[C@H]1O[C@@H]([S-])[C@H](OC(C)=O)[C@@H](OC(C)=O)[C@@H]1OC(C)=O.CCP(CC)CC.[Au+] [auranofin, reference compound]
Neh2-luc reporter activation: 200%

O=C1CN(/N=C/c2ccc([N+](=O)[O-])o2)C(=O)N1 [NITROFURANTOIN, reference compound]
activation at 16 µM: 30% | activation at 32 µM: 47%

COc1ccc(-c2coc3cc(O)ccc3c2=O)c(O)c1O [KOPARIN]
Neh2-luc reporter activation: > 200% | activation at 16 µM: 223% | activation at 32 µM: 11% | 100 nL (luminescence) [1]: 3768 | 200 nL (luminescence) [2]: 492

COC(=O)[C@H]1[C@H]2C[C@@H]3c4[nH]c5cc(OC)ccc5c4CCN3C[C@H]2C[C@@H](OC(=O)c2cc(OC)c(OC)c(OC)c2)[C@@H]1OC [RESERPINE, reference compound]
activation at 16 µM: 36% | activation at 32 µM: 8% | 100 nL (luminescence) [1]: 1120 | 200 nL (luminescence) [2]: 572

CC1(C)C2CC(=O)O[C@@]3(C)C4=CC(=O)O[C@@H](c5ccoc5)[C@]4(C)CCC3[C@@]2(C)C=C[C@H]1O (stereo partly shown) [DEOXYANDIROBINLACTONE]
activation at 16 µM: 40% | activation at 32 µM: 52% | 100 nL (luminescence) [1]: 964 | 200 nL (luminescence) [2]: 1124

O=C1C=C2C=C[C@@H]3C[C@@]2(O1)[C@H]1CCCCN31 [SECURININE]
activation at 16 µM: 84% | activation at 32 µM: -14% | 100 nL (luminescence) [1]: 2068 | 200 nL (luminescence) [2]: 176

CC(CCc1ccccc1)NC(C)C(O)c1ccc(O)cc1 (stereo not shown) [NYLIDRINHYDROCHLORIDE, reference compound]
activation at 16 µM: 42% | activation at 32 µM: 22%

O=CC=Cc1ccc(O)cc1 [p-HYDROXYCINNAMALDEHYDE]
activation at 16 µM: 63% | activation at 32 µM: 122% | 100 nL (luminescence) [1]: 1208 | 200 nL (luminescence) [2]: 3256

O=C(/C=C/c1ccc(O)cc1)c1ccc(O)cc1O [ISOLIQUIRITIGENIN]
100 nL (luminescence): 4452 | 200 nL (luminescence): 2364 | activation at 16 µM: 268% | activation at 32 µM: 134%

CC(C)=CCCC1(C)C=Cc2c(O)c3c(c(CC=C(C)C)c2O1)OC12C(CC4CC1C(C)(C)OC2(C/C=C(/C)C(=O)O)C4O)C3=O (stereo not shown) [TETRAHYDROGAMBOGICACID]
Activation 100 nL: 383% | Activation 200 nL: 100% | 100 nL (luminescence) [1]: 5480 | 200 nL (luminescence) [2]: 2748

CC(=O)O[C@@H]1CC2C(C)(C)C(=O)C3OC3[C@]2(C)C2CC[C@@]3(C)[C@H](c4ccoc4)OC(=O)C4OC43[C@@]21C (stereo partly shown) [EPOXYGEDUNIN]
Activation 100 nL: 28% | Activation 200 nL: 43% | 100 nL (luminescence) [1]: 784 | 200 nL (luminescence) [2]: 988

Cc1c(O)c(O)cc2c1CC=C1[C@@]2(C)CC[C@@]2(C)[C@@H]3C[C@](C)(C(=O)O)CC[C@]3(C)CC[C@]12C [DIHYDROCELASTROL]
hit strength in the screen (words): modest hit | activation at 16 µM: 62% | activation at 32 µM: -16% | 100 nL (luminescence) [1]: 1196 | 200 nL (luminescence) [2]: 88
